Test results as given in patent publication US20230091810A1, “FIRST-IN-CLASS OF SHMT2 AND MTHFD2 INHIBITORS AS ANTITUMOR AGENTS” (Duquesne University of the Holy Spirit, priority 2017, published 2023).
Read-outs that look alike come from different tables or passages of the source.

What was measured:
[1] = system: PC43-10 (RFC) (CHO); assay: proliferation assay, PC43-10 CHO cells expressing RFC only; assay type: cell-based, Chinese hamster; conditions: folate-/glycine-free RPMI1640 with 25 nM leucovorin, 96 h, drug 0-1000 nM, read-out: IC50s (SE) PC43-10 (RFC) (CHO)
Description: (§1) Proliferation assays were performed with engineered Chinese hamster ovary (CHO) cell lines R2 (transporter-null), PC43-10 (expresses RFC only), RT16 (FRα only), and R2/PCFT4 (PCFT only) cultured in folate-/glycine-free RPMI1640 supplemented with 25 nM leucovorin. Additional results are shown for HCT116 (colon tumor cells (CTC)), IGROV1 (epithelial ovarian cancer (EOC) cells), H460 (non-small cell lung cancer (NSCLC) cells), MIAPaCa-2 (pancreatic cancer (PaC) cells), and HPAC (PaC).
(§2) Cell culture and proliferation/protection assays. The HCT116 cell lines including the serine hydroxymethyltransferase (SHMT) 1, SHMT2, and methylene THF dehydrogenase 2 (MTHFD2) knockout (KO) cells were previously described (47,53). The H460 cell line was obtained from the American Type Culture Collection (Manassas, VA), whereas the MIA PaCa-2 cells were provided by Dr. Yubin Ge (Karmanos Cancer Institute). Cell lines were verified by STR analysis by Genetica DNA Laboratories (Burlington, NC). MTXRIIOua^R2-4 (i.e. R2) Chinese hamster ovary (CHO) cells were generously provided by Dr. Wayne Flintoff (University of Western Ontario) (54). From this parental R2 cell line, human RFC and PCFT were individually transfected to generate the isogenic CHO cell lines designated PC43-10 (RFC) and R2/PCFT4 (PCFT) (55-57). Human tumor cell lines were cultured in folate-free RPMI supplemented with 10% dialyzed fetal bovine serum (Sigma-Aldrich), 1% penicillin/streptomycin solution, 2 mM L-glutamine, and 25 nM leucovorin in a humidified atmosphere at 37° C. in the presence of 5% CO2 and 95% air. The CHO cell lines were cultured in alpha-minimal essential medium (alpha-MEM) supplemented with 10% bovine calf serum, 1% penicillin/streptomycin solution, and 2 mM L-glutamine. Additionally, the transfected CHO cell lines (i.e. R2/PCFT4 and PC43-10) were maintained under continuous selection with 1 mg/ml of G418.
For proliferation assays with the CHO cell lines, the cells were treated with drugs (0-1 µM) in a 96-well plate (2000 cells/well) in glycine-free, nucleoside-free folate-free RPMI supplemented with 10% dialyzed fetal bovine serum, 1% penicillin/streptomycin, 2 mM L-glutamine, and 25 nM leucovorin (final volume 200 µL) over a 96 h incubation period at 37° C. with 5% CO2. […] To quantify viable cells, the media was removed and plates were washed once with 100 µL Dulbecco’s Phosphate-Buffered Saline (PBS), after which 100 µL PBS and 20 µL Cell Titer-blue (Promega) were added. Relative cell numbers were proportional to the fluorescence measured with a fluorescence plate reader (590 nm emission, 560 nm excitation). Background fluorescence (cell-free wells treated with Cell Titer-blue) was subtracted and these corrected values were normalized to results for cells treated in an identical manner without drugs.

[2] = system: RT16 (FR alpha) (CHO); assay: proliferation assay, RT16 CHO cells expressing FR alpha only; assay type: cell-based, Chinese hamster; conditions: folate-/glycine-free RPMI1640 with 25 nM leucovorin, 96 h, read-out: IC50s (SE) RT16 (FR alpha) (CHO)
Description: as §1
For proliferation assays with the CHO cell lines, the cells were treated with drugs (0-1 µM) in a 96-well plate (2000 cells/well) in glycine-free, nucleoside-free folate-free RPMI supplemented with 10% dialyzed fetal bovine serum, 1% penicillin/streptomycin, 2 mM L-glutamine, and 25 nM leucovorin (final volume 200 µL) over a 96 h incubation period at 37° C. with 5% CO2. The drugs were dissolved in DMSO; an equivalent amount of DMSO was added to the control (no addition) samples. To quantify viable cells, the media was removed and plates were washed once with 100 µL Dulbecco’s Phosphate-Buffered Saline (PBS), after which 100 µL PBS and 20 µL Cell Titer-blue (Promega) were added. Relative cell numbers were proportional to the fluorescence measured with a fluorescence plate reader (590 nm emission, 560 nm excitation). Background fluorescence (cell-free wells treated with Cell Titer-blue) was subtracted and these corrected values were normalized to results for cells treated in an identical manner without drugs.

[3] = system: IGROV1 (EOC); assay: proliferation assay, IGROV1 epithelial ovarian cancer cells; assay type: cell-based, human; conditions: folate-/glycine-free RPMI1640 with 25 nM leucovorin, read-out: IC50s (SE) IGROV1 (EOC)
Description: as §1
(§3) For proliferation assays of the HCT116, H460, and MIA PaCa2 tumor cell lines, the cells were plated in 96-well plates in an identical manner to the CHO experiments, except that the maximal drug concentration was increased to 10 µM. Glycine/nucleoside protection experiments in CHO and tumor cell lines were performed in folate- and glycine-free RPMI 1640/10% dialyzed fetal bovine serum supplemented with 25 nM leucovorin without additions, or in the presence of adenosine (60 µM), thymidine (10 µM), glycine (130 µM) and/or 5-aminoimidazole-4-carboxamide (AICA) (320 µM). Growth of metabolite-treated cells was normalized to controls treated with metabolites and vehicle (i.e., DMSO) both singly and in combination. Treatments with all metabolites were performed in parallel on the same plate for a given drug.

[4] = system: MIA PaCa-2 (PaC); assay: proliferation assay, MIA PaCa-2 pancreatic cancer cells; assay type: cell-based, human; conditions: folate-/glycine-free RPMI1640 with 25 nM leucovorin, 96 h, read-out: IC50s (SE) MIA PaCa-2 (PaC)
Description: as §1, §2, §3

Compound	IC50 ([1]; Cricetulus griseus, PC43-10)	IC50 ([2]; Cricetulus griseus, RT16)	IC50 ([3]; Homo sapiens, IGROV-1)	IC50 ([4]; Homo sapiens, MIA PaCa-2)	IC50 [1]	IC50 [2]	IC50 [3]	IC50 [4]
Nc1nc2ccn(CCCc3ccc(C(=O)N[C@@H](CCC(=O)O)C(=O)O)cc3)c2c(=O)[nH]1 [AGF291]	454 nM	117 nM	443 nM	3660 nM	–	–	–	–
Nc1nc2ccn(CCCCCc3ccc(C(=O)N[C@@H](CCC(=O)O)C(=O)O)s3)c2c(=O)[nH]1 [AGF320]	–	–	–	–	> 1000 nM	156 nM	401 nM	2270 nM
(2-amino-4-oxo-3,4-dihydro-5H-pyrrolo[3,2-d]pyrimidin-5-yl)butyl)-2-fluorobenzoyl)-L-glutamic acid [AGF347]	–	–	–	–	224 nM	9.4 nM	62 nM	1380 nM
